The results in this text go back to patent US20260199350A1, “FLAVONES, QUINOLINONES, QUINAZOLINONES, AND AURONES, AND USES IN CK2-MEDIATED DISEASES” (Salk Institute for Biological Studies, priority 2022, published 2026).

Assay [1] deals with human iPSC-derived microglia. Put plainly: Cytokine release assay in LPS-stimulated iPSC-derived microglia. It is filed as cell-based. Conditions: 20 μM, panel of 36 cytokines, p<0.05. How it is done:
Cytokine release assay. […] Subsequently, media cleared of cells and debris was collected, snap-frozen and stored at −80° C. until processing with the Human Cytokine Array kit (R&D Systems, Catalog #ARY005). Briefly, media was diluted in Array Buffer 4 and incubated with a cocktail of biotinylated detection antibodies for 1 h at room temperature with rocking. The resulting immunocomplexes were incubated with nitrocellulose membranes spotted with capture antibodies overnight at 4° C. (see below for full list of targets). The membranes were washed 4× with Wash Buffer, then incubated with IRDye 800CW Streptavidin for 30 minutes at room temperature (1:2000 in Array Buffer 5, LI-COR #926-32230). The membranes were washed 4× and imaged with an Odyssey CLx instrument. Intensity for each spot was quantified with ImageStudio. Technical duplicate values for each target were averaged, and differential cytokine release by microglia exposed to LPS+vehicle versus vehicle only was determined (n=2 biological replicates, two-tailed t-tests, P<0.05).

A further assay has as its system CK2α1 and CK2α2. Put plainly: CK2 protein levels by Western in IL1-β-stimulated astrocytes. It is filed as cell-based, human. Conditions: after 5 hours. Here is the method:
Western blotting. For drug treatment assays, cells were treated with vehicle (DMSO) or 20 μM compound and stimulated with IL1B 10 ng/mL for 1 h, 6 h, or 24 h. Cells were dissociated with 1:1 Accutase:papain for 3 min at rt, pelleted for 5 min at 800 g, and washed twice with cold DPBS. […] Protein concentration was determined by BCA assay (Thermo Fisher). […] The blots were incubated with primary antibodies overnight at 4° C. in PBS containing 0.1% casein and 0.2% Tween-20. […] The membranes were washed 5× with 0.1% PBS-Tween20 (PBST) and incubated with secondary antibodies (1:20,000) for 1 h at rt in PBS with 0.1% casein, 0.2% Tween20, and 0.1% SDS. […] The blots were then washed 4× with PBST and 1× with DPBS. The blots were imaged using the Odyssey CLx imaging system and blots were analyzed on the ImageStudio software (LI-COR).

A further assay deals with IL-6 and TNFAIP2. Briefly: IL-6 and TNFAIP2 induction in AD patient-derived astrocytes. The following applies: IL1-β. The assay is classed as cell-based, human.
Another assay concerns the target CK2α1 (Homo sapiens, UniProt P68400). Briefly: Thermal shift assay followed by Western blotting. The assay is classed as binding. The arrangement: endogenous in cells. Conditions: astrocyte lysates. How it is done:
Thermal shift assay and TPP. Experiments were performed as previously described (Franken et al., Nature Protocols 2015, 10:1567-1593; Reinhard et al., Nature Methods 2015, 12:1129-1131). 45 million H1-derived astrocytes were activated with 10 ng/mL IL1b for 6 h, dissociated with 1:1 Accutase/papain (3 min rt), and centrifuged at 1,800 rpm for 2 min at 4 C. The pellet was washed twice with 10 mL cold DPBS, lysed in 2.25 mL DPBS and 0.4% v/v NP-40 by freeze-thawing 3×, and clarified by centrifugation (20,000 g, 30 min, 4° C.). Protein concentration was determined by BCA assay (Bio-Rad), and lysates were diluted to 2 mg/mL. […] Reactions were incubated at rt for 30 min, after which each treated extract was divided into 10 aliquots of 95 μL in PCR strip tubes and stored on ice. Each group of treated samples was heated for 3 min at predesignated temperatures (3×10 temperatures), then kept for 3 min at rt before ultracentrifugation (20 min at 4° C., 100,000 g) in 200 μL polycarbonate tubes (Beckman Coulter #343775). Designated temperatures were 37, 41.1, 43.6, 46.9, 50, 53.7, 56, 59.5, 63, and 67° C. A small aliquot (5 μL) of supernatant was saved for Western blotting, and the rest was snap frozen at −80 C and submitted for LC-MS/MS.
Background: A western blot detects proteins with antibodies after separation by electrophoresis.

Sequence of CK2α1 (P68400 whole entry): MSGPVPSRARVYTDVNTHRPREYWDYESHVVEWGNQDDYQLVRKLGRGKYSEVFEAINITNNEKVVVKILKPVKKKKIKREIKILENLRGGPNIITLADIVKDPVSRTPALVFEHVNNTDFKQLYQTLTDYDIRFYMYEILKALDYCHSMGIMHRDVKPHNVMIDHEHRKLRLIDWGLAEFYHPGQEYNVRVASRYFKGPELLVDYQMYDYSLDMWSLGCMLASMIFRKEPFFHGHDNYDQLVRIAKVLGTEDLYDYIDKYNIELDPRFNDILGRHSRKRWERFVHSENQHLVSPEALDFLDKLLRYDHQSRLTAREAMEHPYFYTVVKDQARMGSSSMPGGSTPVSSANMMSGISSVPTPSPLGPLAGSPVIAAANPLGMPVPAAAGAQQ

Take `COc1cc(-c2cc(=O)c3c(O)cc(O)cc3o2)ccc1O` [CHR, Chrysoeriol]: in assay [1], the “Release of LPS-induced pro-inflammatory cytokines” value is on record as “significantly blocked”. Also, the “CK2α1 and CK2α2 levels” value with CK2α1 and CK2α2 is on record as “reduced to baseline”. Moreover, the “Hyperinflammatory phenotype (IL-6 and TNFAIP2 induction)” value with IL-6 and TNFAIP2 is on record as “mitigated”. Moreover, the “Thermal stabilization of CK2α1” value on CK2α1 is given as “dose-dependently stabilized”.
